Data: patent US7595345B2, “Vitamin D receptor modulators” (Eli Lilly and Company, priority 2003, dated 2009)

Key:
[1] = target: T1, VDR (pGal4-VDR-LBD) (Homo sapiens, UniProt P11473); experiment: VDR CTF (Caco-2 cell co-transfection assay); format: cell-based; conditions: Caco-2 cells, Gal4-responsive reporter pFRLuc; surrogate for calcemic activity
T1 construct: the receptor expression vector pGal4-VDR-LBD (10 ng); expressed in transfected cells; host or cells: Caco-2 cells
T1 sequence (P11473 127-423 limits assumed): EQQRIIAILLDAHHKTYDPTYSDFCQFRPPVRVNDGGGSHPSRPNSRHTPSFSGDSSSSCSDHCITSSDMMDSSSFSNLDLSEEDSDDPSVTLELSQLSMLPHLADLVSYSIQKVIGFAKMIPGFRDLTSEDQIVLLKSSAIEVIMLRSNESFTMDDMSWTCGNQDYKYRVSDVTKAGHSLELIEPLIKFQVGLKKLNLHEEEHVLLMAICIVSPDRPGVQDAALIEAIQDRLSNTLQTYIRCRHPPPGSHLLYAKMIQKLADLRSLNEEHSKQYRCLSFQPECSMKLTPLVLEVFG
Method: 2. The Caco-2 Cell Co-Transfection Assay:
The Caco-2 cell assay is an indicator for the undesirable condition of hypercalcemia. This co-transfection assay is a surrogate assay for in vivo calcemic activity of VDR ligands. […] Preferred assay results are greater than 1000 nM.
(2) Materials and Method for the Caco-2 Cell Assay:
Caco-2 cells, grown in phenol red free, DMEM (Invitrogen, Carlsbad, Calif.) containing 10% charcoal-stripped FCS (Hyclone, Logan, Utah), were transfected with Fugene 6 reagent (Roche Diagnostics, Indianapolis, Ind.). Cells (5000/well) were plated 18 h before transfection in a 96 well plate. The Cells were transfected with Gal4-responsive reporter pFRLuc (150 ng, Stratagene, La Jolla Calif.) and the receptor expression vector pGal4-VDR-LBD (10 ng), along with Fugene 6 reagent (0.2 μl/well). The DNA-Fugene complex was formed by incubating the mixture for 30 min at room temperature. The cells were transfected in triplicate for 5 h, and treated with various concentrations of VDR ligands (form 0.01 nM to 10,000 nM concentration range) 18 h post-transfection. The luciferase activity was quantified using Steady-Glo reagent kit (Promega, Madison, Wis.) as per manufacturer's specifications.

[2] = Mouse hypercalcemia assay; format: in vivo; conditions: female DBF mice, oral gavage for 6 days, serum ionized calcium 6 hours after last dosing
Excerpt: 4. The Mouse Hypercalcemia Assay
(4) Materials and Method for the Mouse Hypercalcemia Assay: […]

[3] = target: T2, RXR-VDR heterodimer (Gal4-RXR-DEF and VP16-VDR-LBD) (Homo sapiens, UniProt P11473); experiment: RXR-VDR heterodimerization assay (SaOS-2 cells); format: cell-based; conditions: luciferase reporter pFR-LUC
T2 construct: Add the Gal4-RXR-DEF and VP16-VDR-LBD; expressed in transfected cells; host or cells: SaOs-2 cells
T2 sequence (P11473 127-423 limits assumed): T1 sequence (P11473 127-423 limits assumed)
T2 sequence (P19793 201-462 partner limits assumed): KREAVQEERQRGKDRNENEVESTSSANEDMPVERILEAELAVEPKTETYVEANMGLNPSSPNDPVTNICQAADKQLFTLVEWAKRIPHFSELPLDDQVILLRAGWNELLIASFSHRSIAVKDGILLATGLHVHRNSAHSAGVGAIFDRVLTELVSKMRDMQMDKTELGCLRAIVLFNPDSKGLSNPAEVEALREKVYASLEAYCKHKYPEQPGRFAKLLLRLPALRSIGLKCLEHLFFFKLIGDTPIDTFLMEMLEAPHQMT
Excerpt: 1. The RXR-VDR Heterodimer Assay:
This assay provides the VDR activity of a test compound.
This is an in vitro efficacy assay for psoriasis, abscess and adhesion. Psoriasis involves both keratinocytes and immune cells. IL-10 is a unique cytokine because it is anti-inflammatory and immunosuppressive. This assay tells us whether a VDRM is able to function as an agonist in PBMCs (primary blood mononuclear cells) or not. […] 7. Other Compound Assay Standards An alternative measure of the efficacy of compounds of the invention for treatment of osteoporosis is a numerical ratio calculated as follows: • Dose Threshold needed to induce hypercalcemia • divided by • Dose Threshold needed for bone efficacy An alternative measure of the efficacy of compounds of the invention for treatment of psoriasis is a numerical ratio calculated as follows: • Dose Threshold needed to induce hypercalcemia • divided by • Dose Threshold needed to induce keratinocyte proliferation For the above ratios, Dose Thresholds are determined from dose response curve data. 8. The CaT1 (Calcium Transport Protein 1) Assay The CaT1 Assay is an indicator for the undesirable condition of hypercalcemia. […] Preferred assay results are greater than 1000 nM. Details of the Assay Methods: (1) Materials and Method for RXR-VDR Heterodimerization Assay: Transfection Method:
Grow SaOs-2 cells in T-152 cm^2 culture flasks in growth media.
Keep the density at 5-6×10^5 cells/ml
Passage cells 1:3 twice a week
Resuspend cells in plating media and transfer into growth media.
Transfection/Treatment Media:
D-MEM Low Glucose Without Phenol Red only
T-152 cm^2 culture flask:
Use well plate to plate cells
Use Deep well plate sterile to make up treatment media.
Luciferase Assay Reagent:
Use Steady-Glo Luciferase Reagent from Promega (Cat #E2550) Consists of:
a. E2533 Assay Substrate, lyophilized product and
Aspirate media from culture flask, rinse cells with HBSS and aspirate.
Add trypsin and incubate. […]
Read the plates after drug treatment […]
Count each well using a Luminescence counter, Top Count NXT by Packard […]

[4] = tested on: rat osteocalcin promoter; experiment: OCN (osteocalcin) promoter assay; format: cell-based; conditions: Rattus norvegicus, 48 h, RG-15 (ROS 17/2.8) cells, 48 hr treatment, luciferase
Method: 3. The OCN (Osteocalcin) Promoter Assay
The OCN Promoter Assay is an indicator and marker for osteoporosis. Desired assay results are EC50 less than or equal to […]. Preferred assay results are less than […].
(3) Materials and Method for the OCN Promoter Assay:
The activation of osteocalcin by VDR ligands was evaluated in a rat osteoblast-like cell line RG-15 (ROS 17/2.8) stably expressing rat osteocalcin promoter fused with luciferase reporter gene. The stable cell lines were established as reported before (Activation of Osteocalcin Transcription involves interaction of protein kinase A- and Protein kinase C-dependent pathways. Boguslawski, G., Hale, L. V., Yu, X.-P., Miles, R. R., Onyia, J. E., Santerre R. F., Chandrasekhar, S. J. Biol. Chem. 275, 999-1006, 2000). Confluent RG-15 cells maintained in DMEM/F-12 medium (3:1) containing 5% FBS, 300 µg/ml G418 and at 37° C. under 5% CO2/95% air atmosphere were trypsinized (0.25% trypsin) and plated into white opaque 96-well cell culture plates (25000 cells/well). After 24 hr, cells (in DMEM/F-12 medium+2% FBS) were treated with various concentrations of compounds, dissolved in DMSO. The final DMSO concentration remained at 0.01% (v/v). After 48 hr treatment, the medium was removed, cells were lysed with 50 µl of lysis buffer (From Luciferase reporter assay system, Roche Diagnostics, Indianapolis, Ind.) and assayed for luciferase activity using the Luciferase Reporter Gene Assay kit from Boehringer Mannheim as per manufacturer's specifications.

Structure (SMILES): CCC(CC)(c1ccc(C#CC2(O)CCCC2)c(C)c1)c1ccc(C(=O)NC(C)(C)C(=O)O)c(C)c1 [Ex. 1, 2-(4-{1-Ethyl-1-[4-(1-hydroxy-cyclopentylethynyl)-3-methyl-phenyl]-propyl}-2-methyl-benzoylamino)-2-methyl-propionic acid]
- EC50 [1]: 471 nM
- Mouse Hypercal [2]: 3000 µg/kg/day
- EC50 [3]: 68.6 nM
- EC50 [4]: 0.96 nM
